Results from patent US11185516B2 (Laboratorios Silanes S.A. DE C.V., priority 2016, dated 2021).

Assays:
AS160 = assay: In vitro AS160 phosphorylation in the presence of GPBP, AMPK and AKT; assay type: biochemical; details: 5 mM, with FLAG-GPBP, AKT, AMPK
Procedure: The reactions (25 μL) were carried out at 30° C., and stirred (350 rpm) for 15 min. Then, they were stopped with a reducing loading buffer, heated (95° C., 2 min), and analyzed using electrophoresis, electrotransfer, and autoradiography.

IRS2−/− (KO) mice = assay: Fasting glycemia and insulinemia in female IRS2−/− mice; assay type: in vivo, mouse; details: 4 weeks
Excerpt: Insulin resistance characterizes type 2 diabetes, obesity, and the metabolic syndrome. Thus, insulin sensitivity is a major therapeutic objective for these metabolic diseases. Insulin receptor substrate (IRS) proteins regulate the physiological actions of insulin upon binding to the receptor. Specific deletion of IRS2 in mice produces diabetes due to a developmental reduction of the pancreatic β-cell mass and the inability of existing β-cells to expand in response to peripheral insulin resistance. Additionally, IRS2-deficiency in mice causes hepatic insulin resistance concurrent with failed suppression of hepatic glucose production. While male IRS2−/− mice often die of diabetic complications by 12 weeks of age, females IRS2−/− mice develop a milder form of diabetes and many live up to 6 months. The observation that female IRS2−/− mice eat more than controls led to the discovery that this molecule is critical for hypothalamic regulation of food intake.
The mean glycemic values are represented per group (n=3) pre-treatment (black bars) and post-treatment (gray bars) along with their standard deviations. […] The fasting serum insulin levels taken pre-treatment (black bars) and post-treatment (gray bars) were determined using a kit (Millipore), following the manufacturer's instructions. Mean values and standard deviations are presented for each group (n=3) (FIG. 12D).
Due to peripheral resistance to insulin, the IRS2−/− mice also develop hyperinsulinemia.

clinical = details: both, human, in vivo, oral, 1240 mg, tmax, median [minimum-maximum], 1240 mg single administration without food
wild type controls (WT) = details: 100 mg/kg/day, 8 weeks, fasting
Procedure: (§1) At the 8-week treatment time point, there were 8 mice in each of the WT groups, 6 mice in the KO IRS2 untreated control group, 7 mice in the KO IRS2 SLN1 treated group, and 8 mice in the KO SLN2 treated group. Blood was collected at the time of sacrifice and used to measure TG under fasting conditions. […] Statistical differences between the experimental groups shown in FIG. 21 were assessed by Student's T test. P value of <0.05 is indicated by *.

HeLa cells = details: 10 mM, 20 h
Procedure: After the incubation, the cells were washed with PBS, collected and washed again, then fixed with methanol:acetone (50:50) for 16 h at −20° C., and stained with 10 μg/mL of propidium iodide, 0.01 mg/mL RNase, 0.01% sodium citrate, for 20 min at 37° C. in darkness. The stained cells were analyzed by flow cytometry using a BD FACS cell sorter and BD FACSuite™ software.

[1] = tested on: IRS2 knockout mice (KO IRS2); assay: Serum triglycerides in IRS2 knockout mice; assay type: in vivo, mouse; details: 100 mg/kg/day, 8 weeks, fasting
Procedure: as §1

GPBP [2] = target: T1, GPBP (Homo sapiens, UniProt Q9Y5P4)
T1 sequence (Q9Y5P4 1-624): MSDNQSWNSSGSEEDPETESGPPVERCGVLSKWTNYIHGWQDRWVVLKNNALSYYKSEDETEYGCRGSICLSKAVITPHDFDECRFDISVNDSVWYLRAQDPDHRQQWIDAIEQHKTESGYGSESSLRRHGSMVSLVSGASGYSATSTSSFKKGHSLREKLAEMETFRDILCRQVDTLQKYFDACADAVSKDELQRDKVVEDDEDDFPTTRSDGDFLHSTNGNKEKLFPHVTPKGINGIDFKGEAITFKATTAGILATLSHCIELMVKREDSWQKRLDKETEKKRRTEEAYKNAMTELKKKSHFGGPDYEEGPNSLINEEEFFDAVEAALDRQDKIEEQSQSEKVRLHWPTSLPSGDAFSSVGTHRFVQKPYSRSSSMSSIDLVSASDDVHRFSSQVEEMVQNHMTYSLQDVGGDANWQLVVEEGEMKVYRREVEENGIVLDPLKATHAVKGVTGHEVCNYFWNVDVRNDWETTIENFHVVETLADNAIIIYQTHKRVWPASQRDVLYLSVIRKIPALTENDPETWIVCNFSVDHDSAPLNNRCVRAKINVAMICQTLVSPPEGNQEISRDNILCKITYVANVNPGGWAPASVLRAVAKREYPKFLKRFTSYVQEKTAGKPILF

[3] = tested on: IRS2 knockout mice (IRS2-/-); details: 100 mg/kg/day, 8 weeks
Procedure: At the 8-week treatment time point, there were 6 mice in each treatment group. Adipose tissue was collected upon sacrifice and frozen in liquid N2. Lipidomics analysis of the tissue was then performed using HPLC/MS. […] Statistical differences between the experimental groups shown in FIG. 22 were assessed by Student's T test. P value of <0.01 is indicated by **.

GLUT4 = GLUT4 translocation (FIG. 19A)
GPBP [4] = target: GPBP (Mus musculus, UniProt Q9EQG9); details: 10 mM, 3 h, FIG. 6B
Procedure: The cells were lysed in a lyse buffer ([…], […], 1% Triton X-100, 1 μM phenylmethylsulphonylfluoride (PMSF) and 10 μg/mL leupeptin) for 30 min at 4° C. Lysates were centrifuged at 16000×g for 5 min at 4° C. and the total protein concentration of the supernatants determined with the Bradford reagent (Bio-Rad). The samples were analyzed by Western blot using the anti-GPBP mAb-N27 and detected with chemoluminiscence (ECL Prime, GE Healthcare).

GPBP (Mus musculus, UniProt Q9EQG9), sequence (Q9EQG9 whole entry): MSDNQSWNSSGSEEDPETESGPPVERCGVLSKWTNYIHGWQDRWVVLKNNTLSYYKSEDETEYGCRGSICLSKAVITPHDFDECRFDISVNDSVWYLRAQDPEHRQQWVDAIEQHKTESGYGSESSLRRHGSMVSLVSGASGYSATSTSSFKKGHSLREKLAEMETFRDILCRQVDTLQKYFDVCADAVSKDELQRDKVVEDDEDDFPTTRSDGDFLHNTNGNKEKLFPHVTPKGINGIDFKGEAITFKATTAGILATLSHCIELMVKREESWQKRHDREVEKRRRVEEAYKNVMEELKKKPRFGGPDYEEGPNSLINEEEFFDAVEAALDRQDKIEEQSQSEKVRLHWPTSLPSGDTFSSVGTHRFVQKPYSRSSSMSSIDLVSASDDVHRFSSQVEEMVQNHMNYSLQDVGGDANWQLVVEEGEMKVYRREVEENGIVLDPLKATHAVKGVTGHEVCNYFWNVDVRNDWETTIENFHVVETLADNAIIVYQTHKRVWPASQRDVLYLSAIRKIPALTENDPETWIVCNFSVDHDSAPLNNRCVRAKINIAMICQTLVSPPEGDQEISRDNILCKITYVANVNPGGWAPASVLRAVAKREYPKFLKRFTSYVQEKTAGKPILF

CN(C)C(=N)NC(=N)N [Metformin glycinate, N,N-dimethylimidodicarbonimidic diamide glycinate]
phosphorylation of AS160 (AS160): increased
fasting glycemia post-treatment (IRS2−/− (KO) mice; 100 mg/kg/day with food, 10-12 weeks old): significantly lower than those pre-treatments
fasting insulin levels (IRS2−/− (KO) mice; 100 mg/kg/day): lowered the fasting insulin levels
Tmax (clinical): 1.5 h
serum triglycerides compared to untreated or SLN1-treated control mice (wild type controls (WT)): lower
cancer cells entering G1 phase cell cycle arrest (HeLa cells): about 56%
serum triglycerides compared to untreated KO IRS2 [1]: lower
high molecular weight GPBP aggregates (GPBP [2]; 1 mM, 24 h): high molecular weight aggregates formed
GPBP-LKB1 aggregates (GPBP [2]; FIG. 14): dissociates GPBP-LKB1 aggregates
adipose tissue triglyceride 16:0 compared to control IRS2−/− [3]: significantly lower
adipose tissue triglyceride 18:1n-9c compared to control IRS2−/− [3]: drastically reduced
GLUT4 translocation (GLUT4): translocated GLUT4
GPBP dephosphorylation vs untreated or metformin treated cells (GPBP [4]): more GPBP dephosphorylation
